We go through six molecules from patent US20220144913A1, “PERSONALIZED AND TIMED RELEASE OF BIOMOLECULES” (The General Hospital Corporation, priority 2019, published 2022).

Broadly, the half-life is the time needed for the level to fall by half in the phase considered.

For data set [1] the following is noted: in vivo; cited from earlier work.
For data set [2] the following is noted: in vivo; cited from earlier work. This is another data set of the same source.
Data set [3] relates to circadian clocks of Jurkat human leukemic T-cells. The data set can be described thus: KL001 disruption of circadian clock driven GLUC secretion, continuous flow. The data set is classed as cell-based. The following applies: 20 μM KL001 for 24 hours before dexamethasone synchronization. As to the method:
Luminescence was recorded by the device as relative luminescence units (RLU). Continuous monitoring of plasma luciferase from mice is described in a separate section below. To monitor continuous secretion of luciferase from cells in vitro over time, cells were seeded onto a custom-made constant flow cell culture and collection device. For each experiment, 16×10^6 cells in approximately 2 ml of media were injected into a tube-like bag made from air permeable material (Rogers Corporation HT-6240 Transparent 0.010″) with approximate dimensions of 20 cm in length and 0.6 cm in diameter. We have previously shown that vessels made from this material are optimal for the expansion of human T-cells (Li et al. 2018). Silicone tubing (Platinum LS14 Masterflex cat #96410-14) was used to connect the cell containing vessel to media filled syringes operated by a PHD 2000 syringe pump (Harvard Apparatus) and to a Biologic Biofrac fraction collector (Biorad). Cells were allowed to settle for 3-4 hours prior to flowing media at 3.8 ml/hour. […] For circadian experiments, cells were synchronized with 10 μM dexamethasone (Sigma cat #D4902) for 30 minutes, washed 3 times with PBS and seeded onto a continuous flow vessel either immediately or after a 24-hour incubation. […]

The test system of the next data set is NFkB. As to the kind of experiment: NFkB-GLuc reporter stimulation in HepG2 hepatocytes. The data set is classed as cell-based. Particulars: two doses of stimulant; media sampled after 12 hours. The text has this:
HepG2 hepatocytes were engineered with the NFkB-GLuc construct and stimulated with either inflammatory LPS or IL-1b at two different doses.

A further data set relates to DS-1 cells. The data set can be described thus: IL-6-dependent proliferation of DS-1 cells in sGP130 conditioned media. The data set is classed as cell-based. Particulars: conditioned media with secreted sGP130 from cells engineered with EF1α-sGP130. The text has this: Media from cells engineered with EF1a-sGP130 constructs was sampled, along with cell lysate, showing that measurable protein levels increase over time (FIG. 15A).
Media from cells engineered with EF1α-sGP130 constructs was sampled, along with cell lysate, showing that measurable protein levels increase over time (FIG. 15A).

Entries after “also recorded” stand apart in the source; their conditions may differ. Read-outs that look alike come from different tables or passages of the source.

Consider parathyroid hormone [PTH], for which the half-life entry in data set [1] was “around 5 minutes”. As for “glucagon-like petide-1 (HAEGTFTSDVSSYLEGQAAKEEFIIAWLVKGRG; listed as Homo sapiens) [GLP1]”, in data set [2], the half-life was 30 min. In the case of `CS(=O)(=O)N(Cc1ccco1)CC(O)Cn1c2ccccc2c2ccccc21` (stereo not shown) [KL001], the “effect on dynamic nature of Circa2 driven GLUC secretion” value in data set [3] (stable Jurkat Circa2-GLUC cells) is “severely disrupting the dynamic nature; also recorded: abolishes dynamic nature”. For the same molecule, the “effect on EF1α driven GLUC secretion” value in data set [3] (stable Jurkat EF1α-GLUC cells) was “little to no effect”.

Regarding “IL-1b: cytokine stimulant acting on a different response element (MAPK)”, the “relative GLuc signal” value in the data set with NFkB is recorded as “not stimulated”. Same read-out and setting: the result for bacterial lipopolysaccharide [LPS] reads “increased dose dependently”.

B1: sGP130: soluble GP130 secreted from cells engineered with EF1α-sGP130 constructs; inhibits IL-6 signaling (protein)
chain: QLLEPCGYIYPEFPVVQRGSNFTAICVLKEACLQHYYVNASYIVWKTNHAAVPREQVTVINRTTSSVTFTDVVLPSVQLTCNILSFGQIEQNVYGVTMLSGFPPDKPTNLTCIVNEGKNMLCQWDPGRETYLETNYTLKSEWATEKFPDCQSKHGTSCMVSYMPTYYVNIEVWVEAENALGKVSSESINFDPVDKVKPTPPYNLSVTNSEELSSILKLSWVSSGLGGLLDLKSDIQYRTKDASTWIQVPLEDTMSPRTSFTVQDLKPFTEYVFRIRSIKDSGKGYWSDWSEEASGTTYEDRPSRPPSFWYKTNPSHGQEYRSVRLIWKALPLSEANGKILDYEVILTQSKSVSQTYTVTGTELTVNLTNDRYVASLAARNKVGKSAAAVLTIPSPHVTAAYSVVNLKAFPKDNLLWVEWTPPPKPVSKYILEWCVLSENAPCVEDWQQEDATVNRTHLRGRLLESKCYQITVTPVFATGPGGSESLKAYLKQAAPARGPTVRTKKVGKNEAVLAWDQIPVDDQNGFIRNYSISYRTSVGKEMVVHVDSSHTEYTLSSLSSDTLYMVRMAAYTDEGGKDGPEFTFTTPKFAQGEIE
For B1, the “proliferation of DS-1 cells” value in the data set with DS-1 cells was “proliferation is suppressed; also recorded: suppress IL-6-dependent proliferation”.
